Patent US7429564B2, “Oral insulin therapy” (Emisphere Technologies, Inc., priority 2002, dated 2008)
Where two headings read alike, the source gives them in different places. Marks after values point to notes of the source that are not given here.

Assay: Example 5: 4-CNAB plasma pharmacokinetics, single oral doses, healthy male volunteers
Assay type: in vivo, human
Conditions: for MRT inf: read-out: 4-CNAB MRT(0-inf); for Vd/F: read-out: 4-CNAB Vd/F
Experimental: A single center, double-blind, randomized placebo-controlled study undertaken in healthy human subjects in order to assess the safety and tolerability of escalating single oral doses of 4-CNAB capsules and insulin/4-CNAB capsules.
Within each treatment period in each group, eight subjects were planned to receive active treatment and two subjects to receive placebo. In Group 1, there were four escalating single doses of 4-CNAB (400, 800, 1400 and 2000 mg) and each subject received either all four of these escalating doses or three escalating single doses and one dose of placebo. […] In Group 3 there were three escalating oral doses of Insulin/4-CNAB (100 Units/300 mg, 100 Units/450 mg and 150 Units/100 mg) and one SC dose of 150 Units of insulin. Each subject received either all four of these treatments or three of these treatments and one placebo treatment. For all groups, there was a washout period of at least 72 hours between treatment periods.
The concentration of 4-CNAB in plasma was determined using a combination of liquid chromatography and Mass spectrometry assay known as LC-MS/MS. The method involves protein precipitation followed by separation on liquid chromatography using a Hypersil BDS column and a mobile phase consisting of methanol and acetate buffer. The eluting peaks were quantified by MS/MS. The equipment used for the determination of 4-CNAB in plasma comprises of an Agilent 1100 modular HPLC system with a Micromass Quattro Micro MS/MS detector. HPLC and AR grade chemicals and reagents were used throughout the study.
On the basis of plasma concentrations of 4-CNAB and insulin, PK analysis was performed using non-compartmental PK methods as implemented in WinNonlin™ Professional version 3.2. The profiles for insulin and C-peptide corrected insulin were evaluated up to 6 hours as food was given 6 hours following insulin treatment. The following parameters were derived for 4-CNAB: Cmax, tmax, AUC(0-t), AUC(0-inf), AUC% Extrap, Kel, t1/2, CL/F, Vd/F, MRT(0-t), MRT(0-inf) and Frel. The following parameters were derived for insulin and C-peptide corrected insulin: Cmax, tmax, AUC(0-2), AUC(0-6), AUC(0-t) and concentrations (C^b) and corresponding time (t^b) immediately prior to intervention for hypoglycemia.

[1] = male, human, plasma, oral, 400 mg, Group/Treatment 1/1, 4-CNAB dose 400, alone, unaudited data
[2] = male, human, plasma, oral, 800 mg, Group/Treatment 1/2, 4-CNAB dose 800, alone, unaudited data
[3] = male, human, plasma, oral, 1400 mg, Group/Treatment 1/3, 4-CNAB dose 1400, alone, unaudited data
[4] = male, human, plasma, oral, 2000 mg, Group/Treatment 1/4, 4-CNAB dose 2000, alone, unaudited data
[5] = male, human, plasma, oral, Group/Treatment 2/2, 4-CNAB dose 200, with insulin, unaudited data
[6] = male, human, plasma, oral, Group/Treatment 2/3, 4-CNAB dose 600, with insulin, unaudited data
[7] = male, human, plasma, oral, Group/Treatment 3/1, 4-CNAB dose 300, with insulin, unaudited data
[8] = male, human, plasma, oral, Group/Treatment 3/2, 4-CNAB dose 450, with insulin, unaudited data
[9] = male, human, plasma, oral, Group/Treatment 3/3, 4-CNAB dose 100, with insulin, unaudited data
[10] = male, human, plasma, po, 400 mg, 4-CNAB alone 400 mg oral
[11] = male, human, plasma, po, 800 mg, 4-CNAB alone 800 mg oral
[12] = male, human, plasma, po, 1400 mg, 4-CNAB alone 1400 mg oral

SMILES: O=C(O)CCCNC(=O)c1ccc(Cl)cc1O [4-CNAB, 4-[(4-chloro, 2-hydroxybenzoyl)amino]butanoic acid]
- 4-CNAB Cl/F (4-CNAB alone 400 mg oral): 294 ± 122 mL/min
- 4-CNAB Kel (4-CNAB alone 400 mg oral): 0.11 ± 0.78 h⁻¹
- 4-CNAB Cl/F (4-CNAB alone 800 mg oral): 290 ± 88^b mL/min
- 4-CNAB Kel (4-CNAB alone 800 mg oral): 0.12 ± 0.04 h⁻¹
- 4-CNAB Cl/F (4-CNAB alone 1400 mg oral): 160 ± 38 mL/min
- 4-CNAB Kel (4-CNAB alone 1400 mg oral): 0.18 ± 0.14 h⁻¹
- 4-CNAB Cl/F (4-CNAB alone 2000 mg oral): 178 ± 32^a mL/min
- 4-CNAB Kel (4-CNAB alone 2000 mg oral): 0.06 ± 0.03 h⁻¹
- 4-CNAB median time of maximum concentration (4-CNAB alone and combined Insulin/4-CNAB treatment): around 0.6 hours
- AUC [1]: 22.4 µg·h/mL
- Cmax [1]: 22.3 µg/mL
- Tmax (male, human, plasma, oral, 400 mg, Group/Treatment 1/1, 4-CNAB dose 400, alone, unaudited data, read-out: 4-CNAB tmax (range)): 30 min
- AUC [2]: 42.7 µg·h/mL
- Cmax [2]: 32.7 µg/mL
- Tmax (male, human, plasma, oral, 800 mg, Group/Treatment 1/2, 4-CNAB dose 800, alone, unaudited data, read-out: 4-CNAB tmax (range)): 30 min
- AUC [3]: 144 µg·h/mL
- Cmax [3]: 97.5 µg/mL
- Tmax (male, human, plasma, oral, 1400 mg, Group/Treatment 1/3, 4-CNAB dose 1400, alone, unaudited data, read-out: 4-CNAB tmax (range)): 30 min
- AUC [4]: 213 µg·h/mL
- Cmax [4]: 122 µg/mL
- Tmax (male, human, plasma, oral, 2000 mg, Group/Treatment 1/4, 4-CNAB dose 2000, alone, unaudited data, read-out: 4-CNAB tmax (range)): 45 min
- half-life (male, human, plasma, oral, 4-CNAB alone, read-out: 4-CNAB mean elimination half-life, range across doses): 354 to 918 min
- AUC [5]: 10 µg·h/mL
- Cmax [5]: 9.16 µg/mL
- Tmax (male, human, plasma, oral, Group/Treatment 2/2, 4-CNAB dose 200, with insulin, unaudited data, read-out: 4-CNAB tmax (range)): 30 min
- AUC [6]: 36.7 µg·h/mL
- Cmax [6]: 33.2 µg/mL
- Tmax (male, human, plasma, oral, Group/Treatment 2/3, 4-CNAB dose 600, with insulin, unaudited data, read-out: 4-CNAB tmax (range)): 30 min
- AUC [7]: 8.74 µg·h/mL
- Cmax [7]: 8.66 µg/mL
- Tmax (male, human, plasma, oral, Group/Treatment 3/1, 4-CNAB dose 300, with insulin, unaudited data, read-out: 4-CNAB tmax (range)): 30 min
- AUC [8]: 25.9 µg·h/mL
- Cmax [8]: 20.1 µg/mL
- Tmax (male, human, plasma, oral, Group/Treatment 3/2, 4-CNAB dose 450, with insulin, unaudited data, read-out: 4-CNAB tmax (range)): 30 min
- AUC [9]: 4.71 µg·h/mL
- Cmax [9]: 5.17 µg/mL
- Tmax (male, human, plasma, oral, Group/Treatment 3/3, 4-CNAB dose 100, with insulin, unaudited data, read-out: 4-CNAB tmax (range)): 15 min
- MRT (male, human, plasma, oral, across treatments, read-out: 4-CNAB MRT, range): 84 to 108 min
- half-life (male, human, plasma, oral, combination capsules with insulin, across dose groups, read-out: 4-CNAB mean elimination half-life): 192 to 318 min
- AUC(0-inf) [10]: 26.7 ± 12.2 µg·h/mL
- AUC(0-t) [10]: 22.2 ± 6.76 µg·h/mL
- Cmax [10]: 22.3 ± 11.5 µg/mL
- MRT inf [10]: 438 ± 693 min
- Vd/F [10]: 220 ± 130 L
- half-life (male, human, plasma, po, 400 mg, 4-CNAB alone 400 mg oral, read-out: 4-CNAB t1/2 (converted)): 720 ± 804 min
- Tmax (male, human, plasma, po, 400 mg, 4-CNAB alone 400 mg oral, read-out: 4-CNAB tmax, median (range)): 30 min
- AUC(0-inf) [11]: 49.4 ± 15.1 µg·h/mL
- AUC(0-t) [11]: 44.3 ± 14.5 µg·h/mL
- Cmax [11]: 38 ± 15.8 µg/mL
- MRT inf [11]: 156 ± 31.8 min
- Vd/F [11]: 156 ± 82 L
- half-life (male, human, plasma, po, 800 mg, 4-CNAB alone 800 mg oral, read-out: 4-CNAB t1/2 (converted)): 354 ± 93 min
- Tmax (male, human, plasma, po, 800 mg, 4-CNAB alone 800 mg oral, read-out: 4-CNAB tmax, median (range)): 30 min
- AUC(0-inf) [12]: 154 ± 38.1 µg·h/mL
- AUC(0-t) [12]: 144 ± 33.8 µg·h/mL
- Cmax [12]: 103 ± 14.6 µg/mL
- MRT inf [12]: 184 ± 103 min
- Vd/F [12]: 81 ± 50 L
- half-life (male, human, plasma, po, 1400 mg, 4-CNAB alone 1400 mg oral, read-out: 4-CNAB t1/2 (converted)): 378 ± 246 min
- Tmax (male, human, plasma, po, 1400 mg, 4-CNAB alone 1400 mg oral, read-out: 4-CNAB tmax, median (range)): 45 min
